Tests used:
[1] = biological target: T1, human recombinant dopamine D2L receptor (Homo sapiens, UniProt P14416); experiment: Dopamine D2L radioligand binding ([3H]Spiperone); details: read-out: Dopamine (1 μM) D2L, inhibition of ligand binding
T1 construct: expressed in transfected cells; host or cells: CHO cells
Protocol: To evaluate in radioligand binding assays the activity of compounds of the invention, human recombinant dopamine D2L receptor expressed in Chinese hamster ovary (CHO) cells (Grandy, D. K. et al. Proc. Natl. Acad. Sci. USA. 86:9762, 1989; Hayes, G. et al., Mol. Endocrinol. 6:920, 1992) in a modified Tris-HCl buffer (50 mM Tris-HCl, pH 7.4, 1.4 mM Ascorbic Acid, 0.001% BSA, 150 mM NaCl) was used. Compounds of the invention were incubated with 0.16 nM [^3H]Spiperone for 120 minutes at 25° C. Non-specific binding was estimated in the presence of 10 μM Haloperidol. Receptor proteins were filtered and washed, the filters were then counted to determine [^3H]Spiperone specifically bound. Compounds were screened at 1 μM or lower, using 1% DMSO as vehicle. Biochemical assay results are presented as the percent inhibition of specific binding in Table 3.

[2] = biological target: T2, human recombinant serotonin (5-Hydroxytryptamine) 5-HT7 receptor (Homo sapiens, UniProt P34969); experiment: Serotonin 5-HT7 radioligand binding ([3H]LSD); details: read-out: Serotonin 5-HT7, inhibition of ligand binding (1 μM)
T2 construct: expressed in transfected cells; host or cells: CHO cells
Protocol: To evaluate in radioligand binding assays the activity of compounds of the invention, human recombinant serotonin (5-Hydroxytryptamine) 5-HT7 receptor expressed in Chinese hamster ovary (CHO) cells (Roth, B. L. et al., J. Pharmacol. Exp. Ther. 268:1403, 1994; Shen, Y. et al., J. Biol. Chem. 268:18200, 1993) in a modified Tris-HCl buffer (50 mM Tris-HCl, pH 7.4, 10 mM MgCl2, 0.5 mM EDTA) was used. Compounds of invention were incubated with 5.5 nM [^3H] Lysergic acid diethylamide (LSD) for 2 hours at 25° C. Non-specific binding was estimated in the presence of 10 μM Serotonin (5-HT). Receptor proteins were filtered and washed, the filters were then counted to determine [^3H]LSD specifically bound. Compounds were screened at 1 μM or lower, using 1% DMSO as vehicle. Biochemical assay results are presented as the percent inhibition of specific binding in Table 4.

T2 sequence (P34969 whole entry): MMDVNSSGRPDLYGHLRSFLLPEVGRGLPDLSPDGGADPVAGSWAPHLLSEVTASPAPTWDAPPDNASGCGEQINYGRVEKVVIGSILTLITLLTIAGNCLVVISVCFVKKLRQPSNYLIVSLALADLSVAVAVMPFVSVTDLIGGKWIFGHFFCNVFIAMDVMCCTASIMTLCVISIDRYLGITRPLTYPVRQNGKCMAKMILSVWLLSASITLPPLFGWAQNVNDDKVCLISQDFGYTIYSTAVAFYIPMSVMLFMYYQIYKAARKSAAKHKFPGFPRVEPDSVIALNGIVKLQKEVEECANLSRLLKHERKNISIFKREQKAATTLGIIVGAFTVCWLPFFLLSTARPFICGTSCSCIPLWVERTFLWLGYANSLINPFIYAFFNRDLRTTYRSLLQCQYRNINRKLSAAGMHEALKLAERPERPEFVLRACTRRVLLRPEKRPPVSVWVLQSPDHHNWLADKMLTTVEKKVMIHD
T1 sequence (P14416 whole entry): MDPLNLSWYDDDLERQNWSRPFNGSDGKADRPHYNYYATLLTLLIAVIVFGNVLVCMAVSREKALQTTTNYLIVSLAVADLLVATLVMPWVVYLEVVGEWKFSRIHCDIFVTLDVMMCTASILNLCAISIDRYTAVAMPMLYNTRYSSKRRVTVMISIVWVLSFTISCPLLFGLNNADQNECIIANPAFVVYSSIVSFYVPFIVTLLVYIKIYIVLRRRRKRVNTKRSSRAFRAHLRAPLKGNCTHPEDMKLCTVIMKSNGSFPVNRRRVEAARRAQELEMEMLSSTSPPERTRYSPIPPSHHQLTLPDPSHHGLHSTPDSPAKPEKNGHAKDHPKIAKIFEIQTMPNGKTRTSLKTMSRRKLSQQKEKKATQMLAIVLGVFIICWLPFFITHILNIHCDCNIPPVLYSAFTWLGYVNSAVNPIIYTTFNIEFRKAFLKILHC

SMILES	inhibition at 1 µM [1]	inhibition at 1 µM [2]
Cc1ccc2c(c1)c1c(n2CC(O)c2ccc(C)nc2)CC2CCC1N2C (stereo not drawn) [Compound 91]	-5%	
CN1C2CCC1c1c(n(CCCc3ccc(Cl)cc3)c3ccc(Cl)cc13)C2 (stereo not drawn) [Compound 39]	2%	
CN1[C@H]2CC[C@@H]1c1c(n(CCc3ccc(F)cc3)c3ccc(F)cc13)C2 [Compound 95, (−)-(7R,10S)-2-Fluoro-5-(4-fluorophenethyl)-11-methyl-5,6,7,8,9,10-hexahydro-7,10-iminocyclohept[b]indole]	50%	
Cc1ccc2c(c1)c1c(n2CCc2cccnc2)CC2CCC1N2C (stereo not drawn) [Compound 86]	4%	
Cc1ccc2c(c1)c1c(n2CCc2nc(-c3ccccc3)cs2)CC2CCC1N2C (stereo not drawn) [Compound 114]	11%	
Cc1ccc2c(c1)c1c(n2CC(=O)N2CCCCC2)CC2CCC1N2C (stereo not drawn) [Compound 93]	-19%	
Cc1ccc(CCCn2c3c(c4cc(Cl)ccc42)C2CCC(C3)N2C)cn1 (stereo not drawn) [Compound 38]	-5%	
CN1C2CCC1c1c(n(CCC(=O)N3CCNCC3)c3ccc(Cl)cc13)C2 (stereo not drawn) [Compound 9]	7%	
Cc1ccc2c(c1)c1c(n2CCc2cnc(C)nc2)CC2CCC1N2C (stereo not drawn) [Compound 81]	9%	
C/C(=C\n1c2c(c3cc(Cl)ccc31)C1CCC(C2)N1C)c1ccc(Cl)cc1 (stereo not drawn) [Compound 125]	5%	95%
CN1C2CCC1c1c(n(C#Cc3ccc(Cl)cc3)c3ccc(Cl)cc13)C2 (stereo not drawn) [Compound 142]	0%	57%
Cc1ccc(CCn2c3c(c4ccccc42)C2CCC(C3)N2C)cn1 (stereo not drawn) [Compound 92]	0%	
CN1[C@@H]2CC[C@H]1c1c(n(CCc3ccc(F)cc3)c3ccc(F)cc13)C2 [Compound 94, (+)-(7S,10R)-2-Fluoro-5-(4-fluorophenethyl)-11-methyl-5,6,7,8,9,10-hexahydro-7,10-iminocyclohept[b]indole]	14%	
Cc1ccc(C(O)Cn2c3c(c4cc(Cl)ccc42)C2CCC(C3)N2C)cn1 (stereo not drawn) [Compound 52]	10%	
C/C(=C\n1c2c(c3cc(C)ccc31)C1CCC(C2)N1C)c1ccc(Cl)cc1 (stereo not drawn) [Compound 116]	-2%	92%
CN1[C@@H]2CC[C@H]1c1c(n(CCc3ccc(C(F)(F)F)nc3)c3ccccc13)C2 [Compound 97]	-10%	
CN1C2CCC1c1c(n(CCC(=O)N3CCS(=O)(=O)CC3)c3ccc(Cl)cc13)C2 (stereo not drawn) [Compound 11]	2%	
Cc1ccc2c(c1)c1c(n2C#Cc2ccc(F)cc2)CC2CCC1N2C (stereo not drawn) [Compound 141]	-4%	48%
COc1ccc(C(C)(O)Cn2c3c(c4cc(Cl)ccc42)C2CCC(C3)N2C)cc1F (stereo not drawn) [Compound 160]	7%	75%
Cc1ccc(C#Cn2c3c(c4cc(Cl)ccc42)C2CCC(C3)N2C)cn1 (stereo not drawn) [Compound 139]	-4%	97%

SMILES	inhibition at 1 µM [1]	inhibition at 1 µM [2]
Cc1ccc2c(c1)c1c(n2CCc2cncc(Cl)c2)CC2CCC1N2C (stereo not drawn) [Compound 88]	4%	
C/C(=C\n1c2c(c3cc(C)ccc31)C1CCC(C2)N1C)c1ccc(Cl)cc1Cl (stereo not drawn) [Compound 163]	-16%	87%
Cc1ccc(CCn2c3c(c4ccccc42)[C@@H]2CC[C@H](C3)N2C)cn1 [Compound 102]	-1%	
COc1ccc(/C(C)=C/n2c3c(c4cc(Cl)ccc42)C2CCC(C3)N2C)cc1F (stereo not drawn) [Compound 136]	11%	79%
CN1C2CCC1c1c(n(CCC(=O)N3CCNC(=O)C3)c3ccc(Cl)cc13)C2 (stereo not drawn) [Compound 3]	-3%	
Cc1ccc2c(c1)c1c(n2C(=O)Cc2ccc(Cl)cc2)CC2CCC1N2C (stereo not drawn) [Compound 162]	2%	43%
Cc1ccc2c(c1)c1c(n2CCc2ccc(C)nc2)CC2CCC1N2C (stereo not drawn) [Compound 32]	10%	
COc1ccc(CCn2c3c(c4cc(C)ccc42)C2CCC(C3)N2C)cc1 (stereo not drawn) [Compound 83]	12%	
Cc1cncc(CCn2c3c(c4cc(Cl)ccc42)C2CCC(C3)N2C)c1 (stereo not drawn) [Compound 89]	9%	
Cc1ccc2c(c1)c1c(n2CCCc2ccc(Cl)cc2)CC2CCC1N2C (stereo not drawn) [Compound 85]	-2%	
C/C(=C\n1c2c(c3cc(C)ccc31)C1CCC(C2)N1C)c1ccc(F)cc1 (stereo not drawn) [Compound 124]	33%	91%
CN1C2CCC1c1c(n(C#Cc3ccc(F)cc3)c3ccc(Cl)cc13)C2 (stereo not drawn) [Compound 138]	42%	91%
C/C(=C/n1c2c(c3ccccc31)[C@@H]1CC[C@H](C2)N1C)c1ccc(F)cc1 [Compound 121]	19%	
Cc1ccc2c(c1)c1c(n2CCC#N)CC2CCC1N2C (stereo not drawn) [Compound 103]	4%	
CN1C2CCC1c1c(n(CCc3cncc(Cl)c3)c3ccc(Cl)cc13)C2 (stereo not drawn) [Compound 87]	-6%	
Cc1ccc(CCn2c3c(c4cc(Cl)ccc42)C2CCC(C3)N2C)cn1 (stereo not drawn) [Compound 79]	9%	
COc1ccc(CCn2c3c(c4cc(Cl)ccc42)C2CCC(C3)N2C)cc1 (stereo not drawn) [Compound 84]	-6%	
Cc1ncc(CCn2c3c(c4cc(Cl)ccc42)C2CCC(C3)N2C)cn1 (stereo not drawn) [Compound 82]	2%	
COc1ccc(C(C)(O)Cn2c3c(c4cc(C)ccc42)C2CCC(C3)N2C)cc1F (stereo not drawn) [Compound 161]	12%	69%
CN1C2CCC1c1c(n(CCC(N)=O)c3ccc(Cl)cc13)C2 (stereo not drawn) [Compound 73]	-4%	

SMILES	inhibition at 1 µM [1]	inhibition at 1 µM [2]
CN1C2CCC1c1c(n(CCC(=O)O)c3ccc(Cl)cc13)C2 (stereo not drawn) [Compound 72]	3%	
Cc1cncc(CCn2c3c(c4cc(C)ccc42)C2CCC(C3)N2C)c1 (stereo not drawn) [Compound 90]	-4%	
CN1C2CCC1c1c(n(CCc3cccnc3)c3ccc(Cl)cc13)C2 (stereo not drawn) [Compound 80]	-3%	
CN1C2CCC1c1c(n(CCC(=O)N3CCSCC3)c3ccc(Cl)cc13)C2 (stereo not drawn) [Compound 12]	-4%	
CCOC(=O)CCn1c2c(c3cc(Cl)ccc31)C1CCC(C2)N1C (stereo not drawn) [Compound 70, ethyl 3-(2-chloro-11-methyl-5,6,7,8,9,10-hexahydro-7,10-iminocyclohept[b]indol-5-yl)propanoate]	-3%	
CN1C2CCC1c1c(n(CCC(=O)N3CC[S+]([O-])CC3)c3ccc(Cl)cc13)C2 (stereo not drawn) [Compound 10]	-2%	
CN1C2CCC1c1c(n(CCc3ccc(C(F)(F)F)nc3)c3cc(F)c(Cl)cc13)C2 (stereo not drawn) [Compound 77]	4%	
CN1C2CCC1c1c(n(CC(=O)c3ccccc3)c3ccc(Cl)cc13)C2 (stereo not drawn) [Compound 110]	14%	
Cc1ccc2c(c1)c1c(n2CC(C)(O)c2ccc(Cl)cc2)CC2CCC1N2C (stereo not drawn) [Compound 54]	14%	
CN1C2CCC1c1c(n(CCCc3ccc(C(F)(F)F)nc3)c3ccc(Cl)cc13)C2 (stereo not drawn) [Compound 37]	2%	
CN1[C@@H]2CC[C@H]1c1c(n(CC(=O)N3CCCCC3)c3ccccc13)C2 [Compound 101]	10%	
CN1C2CCC1c1c(n(CCc3ccc(C(F)(F)F)nc3)c3ccc(Cl)cc13)C2 (stereo not drawn) [Compound 34]	-0.875%	
CN1C2CCC1c1c(n(CCC#N)c3ccc(Cl)cc13)C2 (stereo not drawn) [Compound 107]	-5%	
CN1[C@@H]2CC[C@H]1c1c(n(CC(C)(O)c3ccc(F)cc3)c3ccccc13)C2 (stereo partly drawn) [Compound 99]	-6%	
CC(=O)N1CCN(C(=O)CCn2c3c(c4cc(Cl)ccc42)C2CCC(C3)N2C)CC1 (stereo not drawn) [Compound 8]	1%	
Cc1ccc2c(c1)c1c(n2CCc2ccc(C(F)(F)F)nc2)CC2CCC1N2C (stereo not drawn) [Compound 71]	-2%	
C/C(=C\n1c2c(c3cc(Cl)ccc31)C1CCC(C2)N1C)c1ccc(F)cc1 (stereo not drawn) [Compound 123]	80%	97%
CN1C2CCC1c1c(n(CC(=O)c3ccc(Cl)cc3)c3ccc(Cl)cc13)C2 (stereo not drawn) [Compound 111]	6%	78%

— patent US8546381B2, “Bridged heterocyclic compounds and methods of use” (Medivation Technologies, Inc., priority 2008, dated 2013)
